Measured values from PubChem BioAssay (NCI).
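Method: 48-hour compound exposure of cells in 96-well plates, five concentrations, linear interpolation of endpoints. GI50 marks 50% less growth. At the TGI there is no net growth.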

What was measured:
Assay in all cases: NCI tumour cell line growth inhibition, 48 h
[1] = tested on: SN12C renal
[2] = tested on: SK-MEL-5 melanoma
[3] = tested on: MDA-MB-231 breast
[4] = tested on: A549 NSCLC
[5] = tested on: BT-549 breast
[6] = tested on: NCI-H522 lung
[7] = tested on: SK-MEL-28 melanoma
[8] = tested on: NCI-H226 lung
[9] = tested on: OVCAR-4 ovarian
[10] = tested on: K-562 leukemia
[11] = tested on: RXF 393 renal
[12] = tested on: NCI-H23 lung
[13] = tested on: NCI-H460 lung
[14] = tested on: SW-620 colon
[15] = tested on: SK-MEL-2 melanoma
[16] = tested on: SF-268 CNS
[17] = tested on: CCRF-CEM leukemia
[18] = tested on: MALME-3M melanoma
[19] = tested on: MOLT-4 leukemia
[20] = tested on: PC-3 prostate
[21] = tested on: HL-60(TB) leukemia
[22] = tested on: UACC-62 melanoma
[23] = tested on: SNB-19 CNS
[24] = tested on: SR leukemia
[25] = tested on: OVCAR-8 ovarian
[26] = tested on: HOP-92 NSCLC
[27] = tested on: SF-295 CNS
[28] = tested on: EKVX NSCLC
[29] = tested on: T-47D breast
[30] = tested on: HCC-2998 colon
[31] = tested on: HT29 colon
[32] = tested on: KM12 colon
[33] = tested on: U251 CNS
[34] = tested on: SF-539 CNS
[35] = tested on: DU-145 prostate
[36] = tested on: NCI/ADR-RES ovarian
[37] = tested on: HCT-15 colon
[38] = tested on: TK-10 renal
[39] = tested on: M14 melanoma
[40] = tested on: 786-0 renal
[41] = tested on: COLO 205 colon
[42] = tested on: LOX IMVI melanoma
[43] = tested on: A498 renal
[44] = tested on: HOP-62 NSCLC
[45] = tested on: IGROV1 ovarian
[46] = tested on: OVCAR-5 ovarian
[47] = tested on: HS 578T breast
[48] = tested on: SK-OV-3 ovarian
[49] = tested on: ACHN renal
[50] = tested on: SNB-75 CNS
[51] = tested on: UO-31 renal
[52] = tested on: OVCAR-3 ovarian
[53] = tested on: UACC-257 melanoma
[54] = tested on: MDA-MB-435
[55] = tested on: RPMI-8226 leukemia

With `O=C(/C(=C/c1ccc([N+](=O)[O-])cc1)SCc1ccc(F)cc1)c1ccc(Cl)cc1` as the compound, how does the GI50 [1] read?
The GI50 was 6.94 µM.

And the TGI [1]?
Its TGI is 34.5 µM.

What about the GI50 [2] of the same compound?
The GI50 was 4.33 µM.

And the TGI [2]?
The TGI was 15.2 µM.

What about the GI50 [3] of the same compound?
The GI50 was 4.37 µM.

And the TGI [3]?
Its TGI is 23 µM.

What about the GI50 [4] of the same compound?
Its GI50 is over 100 µM.

And the TGI [4]?
The TGI was over 100 µM.

What about the GI50 [5] of the same compound?
Its GI50 is 3.38 µM.

And the TGI [5]?
Its TGI is 16.4 µM.

What about the GI50 [6] of the same compound?
Its GI50 is 1.88 µM.

What about the TGI [6] of the same compound?
Its TGI is 4.44 µM.

And the GI50 [7]?
Its GI50 is 16.4 µM.

And the TGI [7]?
The TGI was 45.8 µM.

And the GI50 [8]?
Its GI50 is 13.7 µM.

And the TGI [8]?
Its TGI is 44.5 µM.

What about the GI50 [9] of the same compound?
Its GI50 is 3.12 µM.

What about the TGI [9] of the same compound?
The TGI was 13 µM.

And the GI50 [10]?
Its GI50 is 3.05 µM.

And the TGI [10]?
The TGI was over 100 µM.

What about the GI50 [11] of the same compound?
The GI50 was 15.5 µM.

What about the TGI [11] of the same compound?
The TGI was 36.6 µM.

What about the GI50 [12] of the same compound?
The GI50 was 11 µM.

And the TGI [12]?
The TGI was 68.7 µM.

And the GI50 [13]?
The GI50 was 19 µM.

What about the TGI [13] of the same compound?
The TGI was over 100 µM.

What about the GI50 [14] of the same compound?
The GI50 was 2.03 µM.

And the TGI [14]?
The TGI was 4.78 µM.

What about the GI50 [15] of the same compound?
Its GI50 is 13.8 µM.

What about the TGI [15] of the same compound?
The TGI was 36.4 µM.

And the GI50 [16]?
The GI50 was 9.44 µM.

What about the TGI [16] of the same compound?
Its TGI is 33.5 µM.

And the GI50 [17]?
Its GI50 is 3.17 µM.

And the TGI [17]?
The TGI was over 100 µM.

And the GI50 [18]?
Its GI50 is 10.1 µM.

And the TGI [18]?
Its TGI is 24.6 µM.

And the GI50 [19]?
The GI50 was 3.54 µM.

And the TGI [19]?
Its TGI is over 100 µM.

And the GI50 [20]?
Its GI50 is 3.93 µM.

What about the TGI [20] of the same compound?
Its TGI is 16.2 µM.

And the GI50 [21]?
Its GI50 is 4.33 µM.

And the TGI [21]?
Its TGI is 40.4 µM.

And the GI50 [22]?
The GI50 was 5.4 µM.

And the TGI [22]?
Its TGI is 36.6 µM.

And the GI50 [23]?
The GI50 was 3.28 µM.

And the TGI [23]?
The TGI was 11.6 µM.

And the GI50 [24]?
The GI50 was 2.63 µM.

And the TGI [24]?
The TGI was over 100 µM.

What about the GI50 [25] of the same compound?
Its GI50 is 6.6 µM.

What about the TGI [25] of the same compound?
Its TGI is 96.6 µM.

And the GI50 [26]?
Its GI50 is 19.2 µM.

What about the TGI [26] of the same compound?
Its TGI is over 100 µM.

What about the GI50 [27] of the same compound?
The GI50 was 7.09 µM.

And the TGI [27]?
The TGI was 25.1 µM.

And the GI50 [28]?
Its GI50 is 11.5 µM.

And the TGI [28]?
The TGI was 38.6 µM.

What about the GI50 [29] of the same compound?
The GI50 was 7 µM.

What about the TGI [29] of the same compound?
Its TGI is 26.2 µM.

What about the GI50 [30] of the same compound?
The GI50 was 5.11 µM.

And the TGI [30]?
Its TGI is 19 µM.

What about the GI50 [31] of the same compound?
Its GI50 is 2.38 µM.

What about the TGI [31] of the same compound?
The TGI was 6.2 µM.

What about the GI50 [32] of the same compound?
The GI50 was 2.81 µM.

And the TGI [32]?
The TGI was 8.63 µM.

What about the GI50 [33] of the same compound?
The GI50 was 2.07 µM.

And the TGI [33]?
The TGI was 4.02 µM.

What about the GI50 [34] of the same compound?
The GI50 was 15.5 µM.

And the TGI [34]?
Its TGI is 33.2 µM.

And the GI50 [35]?
Its GI50 is 38.6 µM.

And the TGI [35]?
The TGI was over 100 µM.

And the GI50 [36]?
Its GI50 is 4.57 µM.

And the TGI [36]?
The TGI was over 100 µM.

And the GI50 [37]?
Its GI50 is 2.9 µM.

What about the TGI [37] of the same compound?
The TGI was 11.6 µM.

And the GI50 [38]?
Its GI50 is 20.1 µM.

What about the TGI [38] of the same compound?
The TGI was 54.8 µM.

What about the GI50 [39] of the same compound?
The GI50 was 3.91 µM.

And the TGI [39]?
Its TGI is 20.2 µM.

What about the GI50 [40] of the same compound?
Its GI50 is 10.9 µM.

And the TGI [40]?
Its TGI is 24.6 µM.

And the GI50 [41]?
The GI50 was 6.46 µM.

What about the TGI [41] of the same compound?
Its TGI is 28.5 µM.

What about the GI50 [42] of the same compound?
The GI50 was 1.73 µM.

And the TGI [42]?
The TGI was 3.27 µM.

And the GI50 [43]?
Its GI50 is over 100 µM.

What about the TGI [43] of the same compound?
The TGI was over 100 µM.

And the GI50 [44]?
Its GI50 is 18.9 µM.

And the TGI [44]?
Its TGI is 47.3 µM.

What about the GI50 [45] of the same compound?
The GI50 was 9.4 µM.

What about the TGI [45] of the same compound?
The TGI was 38.7 µM.

What about the GI50 [46] of the same compound?
The GI50 was 12.7 µM.

What about the TGI [46] of the same compound?
The TGI was 38.9 µM.

And the GI50 [47]?
Its GI50 is 3 µM.

What about the TGI [47] of the same compound?
Its TGI is 9.32 µM.

And the GI50 [48]?
The GI50 was 37.1 µM.

What about the TGI [48] of the same compound?
Its TGI is over 100 µM.

And the GI50 [49]?
The GI50 was 1.96 µM.

What about the TGI [49] of the same compound?
The TGI was 4.1 µM.

What about the GI50 [50] of the same compound?
The GI50 was 73 µM.

And the TGI [50]?
Its TGI is over 100 µM.

And the GI50 [51]?
The GI50 was 3.6 µM.

What about the TGI [51] of the same compound?
The TGI was 17.8 µM.

And the GI50 [52]?
Its GI50 is 3.06 µM.

What about the TGI [52] of the same compound?
The TGI was 10.6 µM.

What about the GI50 [53] of the same compound?
Its GI50 is 16 µM.

And the TGI [53]?
The TGI was 34.2 µM.

And the GI50 [54]?
The GI50 was 2.78 µM.

And the TGI [54]?
The TGI was 9.49 µM.

What about the GI50 [55] of the same compound?
The GI50 was 1.92 µM.

And the TGI [55]?
The TGI was 6.36 µM.
